The numbers were not newly measured in patent publication US20190307696A1, “TABLETS COMPRISING MIRABEGRON AND SOLIFENACIN” (SYNTHON B.V., priority 2016, published 2019), which cites them from elsewhere.

The conditions of data set [1]: neutral to acidic pH.
For data set [2] the following is noted: presence of food in the GI tract.

With `Nc1nc(CC(=O)Nc2ccc(CCNC[C@H](O)c3ccccc3)cc2)cs1` [Mirabegron], the “permeability (BCS)” value is “low permeability” and the “solubility (BCS)” value is given as “high solubility”. Further, the solubility in water result in data set [1] was “soluble in water between neutral to acidic pH”. The bioavailability result in data set [2] is “affected by the presence of food in the GI tract”.
